From PubChem BioAssay AID328 (DTP/NCI, 2004)
Values joined by “and” are separate entries in the source; they are usually repeats but may differ in a detail not shown here. Equal entries are not always repeated. Toxic doses and inconclusive results are not listed. How the source made its calls: active means survival T/C of 150% or more; inactive means T/C below 125% in these data.

Test system: BDF1 mice, P388 leukemia ip, median survival T/C
Assay: NCI In Vivo Anticancer Drug Screen. Data for tumor model P388 Leukemia (intraperitoneal) in B6D2F1 (BDF1) mice
Settings: endpoint: median survival time, higher = longer survival
Procedure, shortened: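 Each value expresses how treatment altered survival: treated-mouse outcome over vehicle-mouse outcome, both groups bearing the transplanted tumour.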

Measured: T/C

Cc1c(N)nc([C@H](CC(N)=O)NC[C@H](N)C(N)=O)nc1C(=O)N[C@H](C(=O)N[C@H](C)[C@@H](O)[C@H](C)C(=O)N[C@H](C(=O)NCCc1nc(-c2nc(C(=O)NCCC[S+](C)C)cs2)cs1)[C@@H](C)O)C(OC1OC(CO)C(O)C(O)C1OC1OC(CO)C(O)C(OC(N)=O)C1O)c1cnc[nH]1 (stereo partly drawn)
inactive: dose: 0.12 mg/kg/injection, schedule: Q03HX040 (ip), vehicle: saline 101 % of control | dose: 0.5 mg/kg/injection, schedule: Q03HX040 (ip), vehicle: saline 93 % of control | dose: 1.0 mg/kg/injection, schedule: Q01DX005 (ip), vehicle: water 105 % of control | dose: 1.0 mg/kg/injection, schedule: Q01DX009 (ip), vehicle: water 109 % of control | dose: 2.0 mg/kg/injection, schedule: Q01DX009 (ip), vehicle: saline 112 % of control and 115 % of control | dose: 2.0 mg/kg/injection, schedule: Q01DX009 (ip), vehicle: water 109 % of control | dose: 2.0 mg/kg/injection, schedule: Q03HX008 (ip), vehicle: saline 113 % of control | dose: 2.0 mg/kg/injection, schedule: Q03HX016 (ip), vehicle: saline 109 % of control | dose: 2.88 mg/kg/injection, schedule: Q01DX009 (ip), vehicle: saline 103 % of control | dose: 4.0 mg/kg/injection, schedule: Q01DX005 (ip), vehicle: water 107 % of control | dose: 4.0 mg/kg/injection, schedule: Q01DX009 (ip), vehicle: saline 109 % of control and 110 % of control | dose: 4.0 mg/kg/injection, schedule: Q01DX009 (ip), vehicle: water 98 % of control | dose: 4.0 mg/kg/injection, schedule: Q03HX008 (ip), vehicle: saline 109 % of control and 118 % of control | dose: 4.0 mg/kg/injection, schedule: Q03HX024 (ip), vehicle: saline 118 % of control | dose: 4.0 mg/kg/injection, schedule: Q04DX003 (ip), vehicle: other 124 % of control | dose: 4.8 mg/kg/injection, schedule: Q01DX009 (ip), vehicle: saline 115 % of control | dose: 8.0 mg/kg/injection, schedule: Q01DX005 (ip), vehicle: water 107 % of control | dose: 8.0 mg/kg/injection, schedule: Q01DX009 (ip), vehicle: water 100 % of control | dose: 8.0 mg/kg/injection, schedule: Q03HX008 (ip), vehicle: saline 118 % of control | dose: 8.0 mg/kg/injection, schedule: Q03HX016 (ip), vehicle: saline 122 % of control | dose: 8.0 mg/kg/injection, schedule: Q03HX024 (ip), vehicle: saline 104 % of control and 109 % of control | dose: 8.0 mg/kg/injection, schedule: Q04DX003 (ip), vehicle: other 108 % of control | dose: 10.8 mg/kg/injection, schedule: Q01DX009 (ip), vehicle: saline 110 % of control | dose: 12.0 mg/kg/injection, schedule: Q01DX009 (ip), vehicle: saline 117 % of control | dose: 13.0 mg/kg/injection, schedule: Q01DX001 (ip), vehicle: saline 113 % of control | dose: 13.33 mg/kg/injection, schedule: Q01DX009 (ip), vehicle: saline 119 % of control | dose: 13.33 mg/kg/injection, schedule: Q04DX003 (ip), vehicle: saline 100 % of control | dose: 16.0 mg/kg/injection, schedule: Q01DX001 (ip), vehicle: saline 118 % of control and 122 % of control | dose: 16.0 mg/kg/injection, schedule: Q01DX005 (ip), vehicle: water 109 % of control | dose: 16.0 mg/kg/injection, schedule: Q01DX009 (ip), vehicle: water 86 % of control | dose: 16.0 mg/kg/injection, schedule: Q03HX008 (ip), vehicle: saline 90 % of control and 122 % of control | dose: 16.0 mg/kg/injection, schedule: Q03HX016 (ip), vehicle: saline 104 % of control | dose: 18.0 mg/kg/injection, schedule: Q01DX009 (ip), vehicle: saline 95 % of control and 98 % of control | dose: 20.0 mg/kg/injection, schedule: Q01DX001 (ip), vehicle: saline 113 % of control | dose: 22.22 mg/kg/injection, schedule: Q04DX003 (ip), vehicle: saline 106 % of control | dose: 30.0 mg/kg/injection, schedule: Q01DX001 (ip), vehicle: saline 109 % of control | dose: 30.0 mg/kg/injection, schedule: Q01DX009 (ip), vehicle: saline 86 % of control | dose: 32.0 mg/kg/injection, schedule: Q01DX001 (ip), vehicle: saline 122 % of control | dose: 32.0 mg/kg/injection, schedule: Q04DX003 (ip), vehicle: other 101 % of control | dose: 32.0 mg/kg/injection, schedule: Q04DX003 (ip), vehicle: saline 100 % of control | dose: 32.0 mg/kg/injection, schedule: Q08DX002 (ip), vehicle: saline 109 % of control | dose: 37.0 mg/kg/injection, schedule: Q04DX003 (ip), vehicle: saline 110 % of control | dose: 44.0 mg/kg/injection, schedule: Q01DX001 (ip), vehicle: saline 113 % of control and 118 % of control | dose: 61.7 mg/kg/injection, schedule: Q04DX003 (ip), vehicle: saline 105 % of control | dose: 64.0 mg/kg/injection, schedule: Q01DX001 (ip), vehicle: saline 104 % of control and 118 % of control | dose: 64.0 mg/kg/injection, schedule: Q01DX009 (ip), vehicle: saline 95 % of control | dose: 64.0 mg/kg/injection, schedule: Q04DX003 (ip), vehicle: saline 109 % of control | dose: 64.0 mg/kg/injection, schedule: Q08DX002 (ip), vehicle: saline 122 % of control | dose: 67.0 mg/kg/injection, schedule: Q01DX001 (ip), vehicle: saline 113 % of control | dose: 100.0 mg/kg/injection, schedule: Q01DX001 (ip), vehicle: saline 108 % of control | dose: 128.0 mg/kg/injection, schedule: Q01DX001 (ip), vehicle: saline 118 % of control | dose: 128.0 mg/kg/injection, schedule: Q04DX003 (ip), vehicle: saline 100 % of control | dose: 128.0 mg/kg/injection, schedule: Q08DX002 (ip), vehicle: saline 104 % of control and 118 % of control
